The record followed here is PMC6133161, “Thiazoles with cyclopropyl fragment as antifungal, anticonvulsant, and anti-Toxoplasma gondii agents: synthesis, toxicity evaluation, and molecular docking study” (Medicinal Chemistry Research, 2018).

The experiment relates to all tested strains of Candida. The experiment can be described thus: Antifungal screening, all strains. It counts as cell-based. An excerpt: The examined compounds 3a–3j were screened in vitro for antibacterial and antifungal activities using the broth microdilution method according to European Committee on Antimicrobial Susceptibility Testing (EUCAST) (EUCAST [2003]) and Clinical and Laboratory Standards Institute guidelines (CLSI [2012]) against reference strains of microorganisms from American Type Culture Collection (ATCC), including fungi belonging to yeasts (Candida albicans ATCC 2091, Candida albicans ATCC 10231, Candida parapsilosis ATCC 22019 and Candida krusei ATCC 14243).
In the study of antifungal activity of the compounds 3a–3j, 15 clinical strains of different species of yeasts from Candida species, namely C. albicans, C. dubliniensis C. famata, C. inconspicua, C. krusei, C. tropicalis, C. glabrata, C. lambica, C. kefyr, C. lusitaniae, C. parapsilosis, C. guilliermondii, C. lusitaniae, C. pulcherrima and C. sake were also used. […] After incubation, the MIC was assessed spectrophotometric as the lowest concentration of the samples showing complete fungal growth inhibition. […] MFC was determined by removing the culture using for MIC determinations from each well and spotting onto appropriate agar medium. […] The lowest compounds concentration with no visible growth observed was assessed as a fungicidal concentration. […]

`FC(F)(F)c1ccc(-c2csc(N/N=C/C3CC3)n2)cc1` [Compound 3e, (E)-2-(2-(Cyclopropylmethylene)hydrazinyl)-4-(4-(trifluoromethyl)phenyl)thiazole]: the antifungal activity result was “inactive”.
